The text below walks through data of paper PMC3217308 (Journal of Agricultural and Food Chemistry, 2011).

The target in the assay is T1, human sweet taste receptor, hT1R2/hT1R3 (Homo sapiens, UniProt Q7RTX0+Q8TE23).
T1 sequence (Q8TE23 20-839): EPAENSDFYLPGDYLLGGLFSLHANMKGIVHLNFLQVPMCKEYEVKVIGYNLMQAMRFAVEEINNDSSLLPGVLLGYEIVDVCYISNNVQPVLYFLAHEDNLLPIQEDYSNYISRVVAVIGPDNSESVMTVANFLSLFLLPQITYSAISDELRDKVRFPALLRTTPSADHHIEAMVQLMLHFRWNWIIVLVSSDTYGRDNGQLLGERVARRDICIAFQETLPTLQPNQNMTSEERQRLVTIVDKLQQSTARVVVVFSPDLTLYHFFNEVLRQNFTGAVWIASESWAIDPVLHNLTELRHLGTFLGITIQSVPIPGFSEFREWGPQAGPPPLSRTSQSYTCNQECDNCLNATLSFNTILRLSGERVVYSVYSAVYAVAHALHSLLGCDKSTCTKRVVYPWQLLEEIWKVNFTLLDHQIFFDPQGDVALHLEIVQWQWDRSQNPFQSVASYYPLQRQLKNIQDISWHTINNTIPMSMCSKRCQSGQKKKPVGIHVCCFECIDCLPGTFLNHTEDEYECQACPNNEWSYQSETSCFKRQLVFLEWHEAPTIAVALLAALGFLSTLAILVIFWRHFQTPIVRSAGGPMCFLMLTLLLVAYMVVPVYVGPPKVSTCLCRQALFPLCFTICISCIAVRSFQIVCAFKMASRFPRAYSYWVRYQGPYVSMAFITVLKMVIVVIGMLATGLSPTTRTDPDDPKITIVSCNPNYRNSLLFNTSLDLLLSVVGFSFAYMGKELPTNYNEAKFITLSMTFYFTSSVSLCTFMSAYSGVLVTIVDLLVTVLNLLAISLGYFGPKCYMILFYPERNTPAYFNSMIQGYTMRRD
T1 sequence (Q7RTX0 21-852): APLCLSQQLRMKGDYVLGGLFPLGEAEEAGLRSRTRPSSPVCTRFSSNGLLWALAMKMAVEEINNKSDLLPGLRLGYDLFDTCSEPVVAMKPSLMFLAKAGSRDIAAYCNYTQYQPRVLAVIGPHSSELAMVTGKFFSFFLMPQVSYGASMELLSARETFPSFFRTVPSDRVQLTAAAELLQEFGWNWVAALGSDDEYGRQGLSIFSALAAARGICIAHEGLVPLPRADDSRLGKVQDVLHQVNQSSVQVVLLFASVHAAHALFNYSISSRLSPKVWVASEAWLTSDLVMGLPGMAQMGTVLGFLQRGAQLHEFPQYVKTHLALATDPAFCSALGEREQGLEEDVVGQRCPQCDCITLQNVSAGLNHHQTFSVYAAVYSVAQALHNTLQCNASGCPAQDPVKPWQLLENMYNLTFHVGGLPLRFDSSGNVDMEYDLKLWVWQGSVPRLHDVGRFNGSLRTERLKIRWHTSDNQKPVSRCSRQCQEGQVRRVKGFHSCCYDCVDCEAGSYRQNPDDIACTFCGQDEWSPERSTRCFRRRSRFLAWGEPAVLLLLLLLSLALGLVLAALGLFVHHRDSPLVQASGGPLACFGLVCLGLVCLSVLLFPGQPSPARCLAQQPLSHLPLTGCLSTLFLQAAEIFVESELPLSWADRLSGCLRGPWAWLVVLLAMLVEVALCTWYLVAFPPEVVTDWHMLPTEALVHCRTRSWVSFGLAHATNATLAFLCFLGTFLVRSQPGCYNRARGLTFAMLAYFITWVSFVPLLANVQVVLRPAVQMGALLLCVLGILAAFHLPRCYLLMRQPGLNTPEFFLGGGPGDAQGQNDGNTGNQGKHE
Put plainly: Luminescence assay. In kind it is cell-based. As to conditions: aequorin assay, 10–40 nM BCECF.

As to “2′,7′-bis-(2-carboxyethyl)-5-(and-6)-carboxyfluorescein [BCECF]”, the nonspecific signals result is reported as “did not produce nonspecific signals”.
